Laboratory results from PubChem BioAssay (NCI).
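Cultured in 96-well plates, cells were exposed to test compound for 48 hours across five concentrations. Definition used: TGI = concentration required for complete inhibition of growth.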

Key:
Assay in all cases: NCI anticancer screen, dose series, 48 h
[1] = system: 786-0 renal
[2] = system: A498 renal
[3] = system: A549 NSCLC
[4] = system: ACHN renal
[5] = system: BT-549 breast
[6] = system: CAKI-1 renal
[7] = system: CCRF-CEM leukemia
[8] = system: COLO 205 colon
[9] = system: DLD-1 colon
[10] = system: DMS 114 small cell lung
[11] = system: DMS 273 small cell lung
[12] = system: DU-145 prostate
[13] = system: EKVX NSCLC
[14] = system: HCC-2998 colon
[15] = system: HCT-116 colon
[16] = system: HCT-15 colon
[17] = system: HL-60(TB) leukemia
[18] = system: HOP-18 NSCLC
[19] = system: HOP-62 NSCLC
[20] = system: HOP-92 NSCLC
[21] = system: HS 578T breast
[22] = system: HT29 colon
[23] = system: IGROV1 ovarian
[24] = system: K-562 leukemia
[25] = system: KM12 colon
[26] = system: LOX IMVI melanoma
[27] = system: LXFL 529 NSCLC
[28] = system: M14 melanoma
[29] = system: M19-MEL melanoma
[30] = system: MALME-3M melanoma
[31] = system: MDA-MB-435
[32] = system: MOLT-4 leukemia
[33] = system: NCI-H226 lung
[34] = system: NCI-H23 lung
[35] = system: NCI-H460 lung
[36] = system: NCI-H522 lung
[37] = system: OVCAR-3 ovarian
[38] = system: OVCAR-4 ovarian
[39] = system: OVCAR-5 ovarian
[40] = system: OVCAR-8 ovarian
[41] = system: PC-3 prostate
[42] = system: RPMI-8226 leukemia
[43] = system: RXF 393 renal
[44] = system: SF-268 CNS
[45] = system: SF-295 CNS
[46] = system: SF-539 CNS
[47] = system: SK-MEL-2 melanoma
[48] = system: SK-MEL-28 melanoma
[49] = system: SK-MEL-5 melanoma
[50] = system: SK-OV-3 ovarian
[51] = system: SN12C renal
[52] = system: SNB-19 CNS
[53] = system: SNB-75 CNS
[54] = system: SNB-78 CNS
[55] = system: SW-620 colon
[56] = system: T-47D breast
[57] = system: TK-10 renal
[58] = system: U251 CNS
[59] = system: UACC-257 melanoma
[60] = system: UACC-62 melanoma
[61] = system: UO-31 renal
[62] = system: XF 498 CNS
[63] = system: KM20L2 colon
[64] = system: SR leukemia

`OCCCCCCOc1ccc(-c2cc(-c3ccccn3)nc(-c3ccccn3)c2)cc1` was tested. Which TGI [1] did it give?
The TGI was 0.551 µM.

And the TGI [2]?
The TGI was 5.77 µM.

And the TGI [3]?
Its TGI is 6.42 µM.

And the TGI [4]?
Its TGI is 5.22 µM.

What about the TGI [5] of the same molecule?
The TGI was 9.21 µM.

What about the TGI [6] of the same molecule?
The TGI was 1.66 µM.

What about the TGI [7] of the same molecule?
The TGI was 1.08 µM.

And the TGI [8]?
The TGI was 8.09 µM.

What about the TGI [9] of the same molecule?
Its TGI is 2.99 µM.

What about the TGI [10] of the same molecule?
Its TGI is 1.48 µM.

What about the TGI [11] of the same molecule?
Its TGI is 0.978 µM.

And the TGI [12]?
Its TGI is 7.83 µM.

And the TGI [13]?
The TGI was 4.97 µM.

What about the TGI [14] of the same molecule?
The TGI was 16.3 µM.

What about the TGI [15] of the same molecule?
Its TGI is 1.48 µM.

What about the TGI [16] of the same molecule?
The TGI was > 33.1 µM.

What about the TGI [17] of the same molecule?
Its TGI is 0.514 µM.

And the TGI [18]?
Its TGI is 3.99 µM.

And the TGI [19]?
The TGI was 1.66 µM.

What about the TGI [20] of the same molecule?
The TGI was 14.8 µM.

What about the TGI [21] of the same molecule?
The TGI was 4.61 µM.

And the TGI [22]?
The TGI was 11.8 µM.

And the TGI [23]?
The TGI was 2.7 µM.

What about the TGI [24] of the same molecule?
Its TGI is 3.78 µM.

And the TGI [25]?
The TGI was 2.42 µM.

What about the TGI [26] of the same molecule?
Its TGI is 1.02 µM.

And the TGI [27]?
Its TGI is 4.97 µM.

And the TGI [28]?
The TGI was 4.3 µM.

What about the TGI [29] of the same molecule?
Its TGI is 1.25 µM.

What about the TGI [30] of the same molecule?
The TGI was 9.38 µM.

And the TGI [31]?
The TGI was > 100 µM.

And the TGI [32]?
Its TGI is 2.53 µM.

And the TGI [33]?
The TGI was 1.06 µM.

What about the TGI [34] of the same molecule?
The TGI was 9.05 µM.

What about the TGI [35] of the same molecule?
The TGI was 1.17 µM.

What about the TGI [36] of the same molecule?
The TGI was 3.32 µM.

What about the TGI [37] of the same molecule?
Its TGI is 1.32 µM.

And the TGI [38]?
The TGI was 4.81 µM.

What about the TGI [39] of the same molecule?
The TGI was 4.14 µM.

What about the TGI [40] of the same molecule?
The TGI was 1.7 µM.

What about the TGI [41] of the same molecule?
Its TGI is 5.31 µM.

And the TGI [42]?
Its TGI is 1.88 µM.

And the TGI [43]?
Its TGI is 0.853 µM.

And the TGI [44]?
The TGI was 1.32 µM.

What about the TGI [45] of the same molecule?
Its TGI is 1.64 µM.

What about the TGI [46] of the same molecule?
The TGI was 1.02 µM.

And the TGI [47]?
Its TGI is 1.13 µM.

And the TGI [48]?
Its TGI is 2.72 µM.

And the TGI [49]?
The TGI was 3.48 µM.

What about the TGI [50] of the same molecule?
The TGI was 1.59 µM.

What about the TGI [51] of the same molecule?
Its TGI is 3.02 µM.

And the TGI [52]?
The TGI was 37.8 µM.

And the TGI [53]?
Its TGI is 3.11 µM.

And the TGI [54]?
Its TGI is 10.9 µM.

And the TGI [55]?
The TGI was 14.7 µM.

And the TGI [56]?
The TGI was 5.74 µM.

What about the TGI [57] of the same molecule?
The TGI was 6.66 µM.

And the TGI [58]?
The TGI was 1.6 µM.

What about the TGI [59] of the same molecule?
The TGI was 10.2 µM.

And the TGI [60]?
The TGI was 0.933 µM.

What about the TGI [61] of the same molecule?
Its TGI is 2.45 µM.

What about the TGI [62] of the same molecule?
The TGI was 5.32 µM.

With `CC(=O)NC1=C(C)C(=O)c2c(nc3n2CCC3O)C1=N` (configuration not stated) as the molecule, how does the TGI [1] read?
The TGI was 40.4 µM.

What about the TGI [2] of the same molecule?
The TGI was 59.6 µM.

What about the TGI [3] of the same molecule?
Its TGI is > 100 µM.

And the TGI [4]?
Its TGI is 37.7 µM.

And the TGI [6]?
The TGI was 27.7 µM.

And the TGI [7]?
The TGI was > 100 µM.

And the TGI [8]?
Its TGI is 33.4 µM.

And the TGI [9]?
Its TGI is 25.1 µM.

And the TGI [10]?
Its TGI is 13.4 µM.

And the TGI [11]?
The TGI was 33.2 µM.

And the TGI [13]?
The TGI was 37 µM.

What about the TGI [14] of the same molecule?
The TGI was 45.7 µM.

And the TGI [15]?
The TGI was 6.88 µM.

And the TGI [16]?
Its TGI is 41.1 µM.

And the TGI [17]?
The TGI was > 100 µM.

What about the TGI [18] of the same molecule?
Its TGI is 31.8 µM.

And the TGI [19]?
Its TGI is > 100 µM.

And the TGI [20]?
The TGI was 15.3 µM.

What about the TGI [22] of the same molecule?
The TGI was 33.5 µM.

And the TGI [23]?
The TGI was 39.3 µM.

And the TGI [24]?
Its TGI is > 100 µM.

And the TGI [25]?
The TGI was 34.3 µM.

What about the TGI [63] of the same molecule?
The TGI was 36.9 µM.

And the TGI [26]?
The TGI was 19.2 µM.

And the TGI [29]?
Its TGI is 4.94 µM.

What about the TGI [30] of the same molecule?
The TGI was 18.8 µM.

And the TGI [32]?
The TGI was > 100 µM.

What about the TGI [33] of the same molecule?
The TGI was 33.1 µM.

And the TGI [34]?
The TGI was 29.7 µM.

What about the TGI [35] of the same molecule?
The TGI was 51.3 µM.

And the TGI [36]?
The TGI was 19.6 µM.

What about the TGI [37] of the same molecule?
The TGI was 11.1 µM.

What about the TGI [38] of the same molecule?
Its TGI is 14.6 µM.

And the TGI [39]?
The TGI was 36.6 µM.

What about the TGI [40] of the same molecule?
The TGI was 16.7 µM.

What about the TGI [42] of the same molecule?
The TGI was > 100 µM.

And the TGI [44]?
The TGI was 22.3 µM.

What about the TGI [45] of the same molecule?
The TGI was 38 µM.

And the TGI [46]?
Its TGI is 13.9 µM.

What about the TGI [47] of the same molecule?
Its TGI is 22 µM.

What about the TGI [48] of the same molecule?
The TGI was 31 µM.

And the TGI [49]?
Its TGI is 26.2 µM.

And the TGI [50]?
Its TGI is 97.1 µM.

What about the TGI [51] of the same molecule?
The TGI was 19 µM.

And the TGI [52]?
Its TGI is 50.4 µM.

And the TGI [53]?
The TGI was 49.1 µM.

And the TGI [54]?
The TGI was 8.56 µM.

What about the TGI [64] of the same molecule?
The TGI was > 100 µM.

What about the TGI [55] of the same molecule?
Its TGI is 26.4 µM.

What about the TGI [57] of the same molecule?
Its TGI is 85.4 µM.

And the TGI [58]?
The TGI was 26.9 µM.

And the TGI [59]?
Its TGI is 13.2 µM.

And the TGI [60]?
Its TGI is 15.5 µM.

And the TGI [61]?
Its TGI is 46.6 µM.

And the TGI [62]?
Its TGI is 9.04 µM.
